How the values were obtained:
[1] = system: DLD1 BRCA2−/− cells; assay: Micronuclei (MNi) assay after B6L induction; assay type: cell-based, human; conditions: BRCA2−/− cells held in G2 with RO-3306 prior to release in mitosis
Description: For TOPBP1 rescue experiments, DLD1 wild-type and BRCA2^−/− cells stably expressing 2×HA-TOPBP1 were generated by viral transduction and selection with blasticidin (7.5 μg/mL for parental cells, 10 μg/mL for BRCA2^−/− cells). 3 days after transduction with sgRNA viral particles (as described in the clonogenic survival assays), cells were seeded in a 96-well plate (1,500 for wild-type cells; 4,000 for BRCA2^−/− cells) and cultured for 4 additional days. For inducible B6L expression experiments, DLD1 and MDA-MB-436 cells were seeded in a 96-well plate (1,500 for DLD1 wild-type cells; 4,000 for DLD1 BRCA2^−/− cells; 14,000 for MDA-MB-436) and cultured for up to 4 days in the presence of Aqua-Shield-1.
For detection of micronuclei, cells were fixed with 2% PFA, washed 3 times with PBS, permeabilized with 0.3% Triton X-100 in PBS for 5 min, washed 3 times with PBS, incubated for 1 h with PBS+DAPI (0.5 μg/mL). Alternatively, cells were stained for immunofluorescence (CENPA detection). After the last wash with PBS, images were acquired on an IN Cell Analyzer 6000 automated microscope (GE Life Sciences) with a 40× objective. Micronuclei were automatically detected and counted using the Columbus analysis tool (PerkinElmer).

[2] = system: U2OS cells; assay: CIP2A/TOPBP1 mitotic foci and filaments after aphidicolin; assay type: cell-based, human; conditions: 400 nM aphidicolin, 16 h; wild type and MDC1−/− U2OS; mostly independent of MDC1
Description: For the experiments relating to the mitotic structures labelled by CIP2A and TOPBP1, U2OS wild-type and MDC1^-/- cell lines were seeded on coverslips and either treated with 400 nM aphidicolin for 16 h (overnight) or left untreated. In order to perform immunofluorescence, cells were quickly washed once with cold PBS and then fixed with ice-cold methanol for 10 min on ice. Methanol was discarded and cells were washed two times with PBS before incubation with blocking buffer (10% FBS in PBS) for at least 1 h. Incubation with primary antibodies diluted in 5% FBS-PBS was performed overnight at 4° C. in a humidity chamber. Coverslips were then washed 3×10 min with blocking buffer and incubated with AlexaFluor-conjugated secondary antibodies for 1 h at room temperature in the dark. After washing 3×10 min with PBS, coverslips were mounted on glass microscopy slides (Thermo Scientific, 630-1985, dimensions […]×[…] mm) with […] mounting medium containing 0.5 μg/mL (DAPI) (Vector Laboratories, H-1200). Confocal images were acquired using a Leica SP8 inverse confocal laser scanning microscope with a 63×, 1.4-NA Plan-Apochromat oil-immersion objective. […] Images were recorded using optimal pixel size based on Nyquist criterion. […] Quantification of the foci was performed manually based on maximum intensity projections. […]

Row | SMILES | B6L-induced micronucleation after holding cells in G2 [1] | frequency of CIP2A-TOPBP1 foci and filaments in mitotic cells [2]
1 | O=C1NC(=NCc2cccs2)S/C1=C\c1ccc2ncccc2c1 [RO-3306] | completely suppressed B6L-induced micronucleation | –
2 | C[C@@]1(CO)[C@H](O)CC[C@@]2(C)[C@H]1CC[C@H]1C[C@@H]3C[C@@]12CC[C@]3(O)CO [aphidicolin] | – | increased

Source: patent publication US11897925B2, “Treatment of homologous recombination deficient cancers” (Sinai Health System, priority 2020, dated 2024)
